Calls of active or inactive are those of the source.
Legend:
[1] = target: T1, Eukaryotic translation initiation factor 2-alpha kinase 3 (Homo sapiens, UniProt Q9NZJ5); experiment: Dose response cell-based high-throughput screening assay to measure PERK inhibition. [Related pubchem assays: 1416 ]; assay type: functional
[2] = target: T1, Eukaryotic translation initiation factor 2-alpha kinase 3; experiment: Counterscreen assay for PERK inhibitors: Dose response cell-based high throughput screening assay to measure inhibition of PERK at 6 hours. [Related pubchem assays: 1522, 1416 ]; assay type: functional
[3] = inhibitors of firefly luciferase expression or activity, dose response, H4 neuroglioma cells, luminescence (AID 1990); assay type: functional, cell-based
[4] = luciferase reporter signal reduction – luminescence, H4-C neuroglioblastoma cells, dose response (AID 2458); assay type: functional, cell-based;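 also: H4 neuroglioblastoma cells stably carrying a luciferase reporter gene fusion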
[5] = cells; assay type: functional, cell-based
[6] = inhibitors of SNCA 5'UTR-driven reporter translation, confirmation, H4 neuroglioma cells, luminescence (AID 1988); assay type: functional, cell-based
[7] = inhibitors of SNCA 5'UTR-driven translation, confirmation, luminescence, H4 neuroglioblastoma cells, dose confirmation (AID 2454); assay type: functional, cell-based;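 also: H4 neuroglioblastoma cells carrying an alpha-synuclein 5'UTR luciferase reporter; potency for inhibition of the luciferase signal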
[8] = cytotoxicity in HEK-293T cells, dose response, cytotoxicity control for TCR NF-kB inhibitor project, luminescence, T-cell screen hits (AID 489026); assay type: functional, cell-based;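 also: cells exposed to compound about 14 hours before the viability readout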
[9] = target: T2, Protein Rev (Human immunodeficiency virus type 1 group M subtype B (isolate HXB2)(HIV-1), UniProt P04618); experiment: inhibitors of Rev binding to RRE RNA, dose response, biochemical, fluorescence polarization, HIV-1 (AID 434976); parameters: species or system Human immunodeficiency virus 1
T2 sequence (P04618 whole entry): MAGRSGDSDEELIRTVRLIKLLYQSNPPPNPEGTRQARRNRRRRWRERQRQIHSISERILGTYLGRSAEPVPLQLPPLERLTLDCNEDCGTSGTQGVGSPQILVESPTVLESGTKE

[10] = target: T3, Heat shock 70 kDa protein 1A (Homo sapiens, UniProt P0DMV8); experiment: Hsp70 inhibitors, biochemical, TR-FRET (AID 786)
[11] = target: T4, Female germline-specific tumor suppressor gld-1 (Caenorhabditis elegans, UniProt Q17339); experiment: inhibitors of GLD-1 binding to TGE RNA, dose response, biochemical, fluorescence polarization, C. elegans (AID 2802);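 also: fluorescence polarization of labeled TGE RNA bound by purified gld-1 protein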
T4 sequence (Q17339 whole entry): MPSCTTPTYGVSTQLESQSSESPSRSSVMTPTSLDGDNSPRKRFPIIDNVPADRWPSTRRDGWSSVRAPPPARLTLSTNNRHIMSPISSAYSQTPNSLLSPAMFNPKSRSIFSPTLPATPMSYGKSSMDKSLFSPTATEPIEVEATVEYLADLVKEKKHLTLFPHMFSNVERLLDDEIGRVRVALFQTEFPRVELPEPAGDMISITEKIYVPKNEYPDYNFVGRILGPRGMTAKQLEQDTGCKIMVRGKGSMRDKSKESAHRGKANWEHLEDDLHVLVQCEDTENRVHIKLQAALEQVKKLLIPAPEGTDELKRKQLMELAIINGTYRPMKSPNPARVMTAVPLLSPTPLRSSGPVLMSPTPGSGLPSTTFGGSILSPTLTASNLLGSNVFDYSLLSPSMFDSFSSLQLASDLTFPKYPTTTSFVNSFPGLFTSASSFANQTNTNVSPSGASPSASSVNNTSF

[12] = target: T5, RNA-binding protein pos-1 (Caenorhabditis elegans, UniProt G5EF15); experiment: inhibitors of POS-1/mex-3 RNA binding, dose response, biochemical, fluorescence polarization (AID 1964);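 also: purified POS-1 fused to maltose binding protein made in E. coli; potency of compounds blocking POS-1 binding to fluorescent RNA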
T5 sequence (G5EF15 whole entry): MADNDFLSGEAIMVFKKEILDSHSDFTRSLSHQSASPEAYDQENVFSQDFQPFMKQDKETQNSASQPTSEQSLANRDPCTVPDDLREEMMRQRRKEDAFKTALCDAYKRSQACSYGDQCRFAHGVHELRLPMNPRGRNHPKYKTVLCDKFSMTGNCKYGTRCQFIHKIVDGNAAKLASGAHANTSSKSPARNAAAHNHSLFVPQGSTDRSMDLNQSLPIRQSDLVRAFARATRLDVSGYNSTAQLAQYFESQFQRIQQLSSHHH

[13] = target: T3, Heat shock 70 kDa protein 1A; experiment: Hsp70 inhibitors, probe displacement, primary screen, biochemical, fluorescence polarization (AID 583)
[14] = target: T6, Zinc finger protein mex-5 (Caenorhabditis elegans, UniProt Q9XUB2); experiment: MEX-5/TCR-2 RNA interaction inhibitors, dose response, biochemical, C. elegans, fluorescence polarization (AID 1960)
T6 sequence (Q9XUB2 whole entry): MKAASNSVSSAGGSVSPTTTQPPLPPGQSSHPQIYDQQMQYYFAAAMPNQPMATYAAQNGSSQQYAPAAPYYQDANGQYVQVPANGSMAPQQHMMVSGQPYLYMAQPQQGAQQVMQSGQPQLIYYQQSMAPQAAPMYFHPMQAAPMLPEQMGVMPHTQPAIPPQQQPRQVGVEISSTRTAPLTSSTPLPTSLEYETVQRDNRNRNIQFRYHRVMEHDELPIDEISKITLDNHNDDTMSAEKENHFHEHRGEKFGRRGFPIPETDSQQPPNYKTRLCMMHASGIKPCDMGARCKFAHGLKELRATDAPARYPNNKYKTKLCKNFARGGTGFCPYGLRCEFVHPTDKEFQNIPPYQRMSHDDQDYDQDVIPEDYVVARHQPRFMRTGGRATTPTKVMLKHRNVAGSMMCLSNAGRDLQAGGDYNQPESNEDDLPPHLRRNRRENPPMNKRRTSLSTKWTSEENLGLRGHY

[15] = target: T7, Polyadenylate-binding protein 1 (Homo sapiens, UniProt P11940); experiment: PABP1 MLLE–PAM2 interaction inhibitors, dose response, miRNA deadenylation inhibitor project, biochemical, fluorescence polarization, Cy5-PAM2 peptide, secondary (AID 602260); assay type: functional; conditions: read-out: IC50_Mean
[16] = target: T7, Polyadenylate-binding protein 1; experiment: PABP1 MLLE–PAM2 binding inhibitor potency, dose response, biochemical, fluorescence polarization, FITC-PAM2 peptide (AID 602259); assay type: functional; conditions: read-out: IC50_Mean
[17] = HepG2 cell cytotoxicity, dose response, cytotoxicity control, ATP luminescence, cherry-pick, set 6 (AID 1053125); assay type: functional, cell-based
[18] = target: T8, Alkaline phosphatase, tissue-nonspecific isozyme (Homo sapiens, UniProt P05186)
T8 sequence (P05186 whole entry): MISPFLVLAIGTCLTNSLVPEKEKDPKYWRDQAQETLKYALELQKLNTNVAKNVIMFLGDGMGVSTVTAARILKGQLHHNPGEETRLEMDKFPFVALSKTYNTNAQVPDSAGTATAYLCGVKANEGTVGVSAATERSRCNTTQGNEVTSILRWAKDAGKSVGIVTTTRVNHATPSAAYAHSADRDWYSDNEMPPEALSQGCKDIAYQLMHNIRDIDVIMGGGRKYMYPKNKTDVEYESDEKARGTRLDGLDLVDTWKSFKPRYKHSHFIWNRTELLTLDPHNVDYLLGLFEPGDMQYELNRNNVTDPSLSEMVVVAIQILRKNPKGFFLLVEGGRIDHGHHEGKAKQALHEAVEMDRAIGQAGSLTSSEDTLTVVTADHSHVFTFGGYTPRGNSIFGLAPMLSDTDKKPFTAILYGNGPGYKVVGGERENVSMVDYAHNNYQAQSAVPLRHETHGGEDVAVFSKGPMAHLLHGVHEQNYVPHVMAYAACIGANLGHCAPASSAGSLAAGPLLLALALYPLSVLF

[19] = target: G-protein coupled receptor 35 (Homo sapiens, UniProt Q9HC97); experiment: GPR35 antagonists blocking zaprinast-driven arrestin recruitment, primary screen, imaging, U2OS, beta-arrestin-GFP, zaprinast agonist (AID 2058); assay type: functional;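 also: antagonist potency meaning inhibition of agonist-induced arrestin redistribution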
[20] = inhibitors of intracellular T. cruzi replication, confirmation, NIH3T3 host cells, beta-gal luminescence (AID 2044); assay type: functional, cell-based;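 also: intracellular parasites grown in NIH/3T3 mouse fibroblasts as host cells; luminescent beta-galactosidase reporter signal from transgenic T. cruzi replicating inside host cells; inhibitors lower the luminescence signal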
[21] = growth suppression of PTEN-null colon cells, dose response, cell-based, HCT116 PTEN knockout (AID 1047); assay type: functional;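 also: HCT116 colon tumor cells with PTEN knocked out; cells exposed to compound for 60 hours before readout; potency for loss of cell viability measured by luminescence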
[22] = growth suppression of beta-catenin-knockout colon cells, dose response, cell-based, HCT116, human colon tumor (AID 1045); assay type: functional;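 also: HCT116 colon tumor cells with beta catenin knocked out; cells exposed to compound for 60 hours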
[23] = tested on: INS1; experiment: beta cell apoptosis inhibitors, cytokine rescue, dose response, luminescence, retest (AID 449756); assay type: functional, cell-based; conditions: Rattus norvegicus;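 also: cell death triggered by IL-1 beta plus TNF-alpha plus IFN-gamma mixture; protective hits raise ATP signal compared with cytokine alone wells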
[24] = target: NACHT, LRR and PYD domains-containing protein 3 (Homo sapiens, UniProt Q96P20); experiment: NALP3 inhibitors in yeast, dose response, luminescent (AID 488799); assay type: functional
NACHT, LRR and PYD domains-containing protein 3, sequence (Q96P20 whole entry, the tested form may be a part): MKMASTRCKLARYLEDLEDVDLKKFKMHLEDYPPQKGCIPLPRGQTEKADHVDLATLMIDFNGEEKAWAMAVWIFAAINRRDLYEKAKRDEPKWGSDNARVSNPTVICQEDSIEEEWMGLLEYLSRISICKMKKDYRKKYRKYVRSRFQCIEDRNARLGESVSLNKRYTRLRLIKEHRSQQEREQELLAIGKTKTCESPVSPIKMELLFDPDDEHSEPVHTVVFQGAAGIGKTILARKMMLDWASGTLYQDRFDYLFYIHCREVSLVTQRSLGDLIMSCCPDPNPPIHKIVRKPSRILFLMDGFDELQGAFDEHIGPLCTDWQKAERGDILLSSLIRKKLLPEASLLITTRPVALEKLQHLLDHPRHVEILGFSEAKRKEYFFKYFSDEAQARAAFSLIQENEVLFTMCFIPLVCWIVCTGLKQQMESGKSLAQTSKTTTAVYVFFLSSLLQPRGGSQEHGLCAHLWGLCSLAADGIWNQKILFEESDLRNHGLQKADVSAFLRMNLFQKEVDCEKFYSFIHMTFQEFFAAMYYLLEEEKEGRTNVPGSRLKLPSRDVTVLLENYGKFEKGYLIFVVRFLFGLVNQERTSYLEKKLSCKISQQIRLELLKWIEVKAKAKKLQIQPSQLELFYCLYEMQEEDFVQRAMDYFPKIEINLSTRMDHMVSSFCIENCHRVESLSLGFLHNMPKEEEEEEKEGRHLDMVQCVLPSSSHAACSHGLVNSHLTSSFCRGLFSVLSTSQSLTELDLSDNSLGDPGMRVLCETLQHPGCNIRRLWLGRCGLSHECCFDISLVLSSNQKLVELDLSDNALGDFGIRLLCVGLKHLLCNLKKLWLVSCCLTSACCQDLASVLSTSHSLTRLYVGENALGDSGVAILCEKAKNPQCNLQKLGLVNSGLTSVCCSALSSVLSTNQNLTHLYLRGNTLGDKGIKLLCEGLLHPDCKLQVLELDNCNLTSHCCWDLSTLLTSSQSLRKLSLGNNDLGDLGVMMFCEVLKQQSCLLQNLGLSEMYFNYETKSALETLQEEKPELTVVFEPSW

T3 sequence (P0DMV8 whole entry): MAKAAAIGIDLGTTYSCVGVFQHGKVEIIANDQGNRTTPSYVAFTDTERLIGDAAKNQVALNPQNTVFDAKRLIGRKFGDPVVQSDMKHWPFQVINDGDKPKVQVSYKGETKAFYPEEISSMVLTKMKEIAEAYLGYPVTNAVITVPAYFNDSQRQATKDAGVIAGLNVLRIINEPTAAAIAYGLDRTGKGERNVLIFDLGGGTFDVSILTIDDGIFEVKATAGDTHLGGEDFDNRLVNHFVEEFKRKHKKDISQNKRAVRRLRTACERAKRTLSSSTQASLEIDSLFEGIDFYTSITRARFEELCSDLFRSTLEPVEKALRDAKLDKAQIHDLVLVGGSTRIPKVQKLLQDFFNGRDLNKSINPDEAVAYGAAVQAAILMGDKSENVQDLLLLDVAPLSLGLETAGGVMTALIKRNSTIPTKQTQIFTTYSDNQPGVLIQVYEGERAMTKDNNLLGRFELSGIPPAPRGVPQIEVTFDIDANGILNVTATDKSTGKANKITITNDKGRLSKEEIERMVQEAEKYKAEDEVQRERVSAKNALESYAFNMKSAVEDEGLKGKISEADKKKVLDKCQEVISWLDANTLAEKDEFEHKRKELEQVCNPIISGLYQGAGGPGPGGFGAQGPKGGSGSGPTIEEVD
T7 sequence (P11940 whole entry): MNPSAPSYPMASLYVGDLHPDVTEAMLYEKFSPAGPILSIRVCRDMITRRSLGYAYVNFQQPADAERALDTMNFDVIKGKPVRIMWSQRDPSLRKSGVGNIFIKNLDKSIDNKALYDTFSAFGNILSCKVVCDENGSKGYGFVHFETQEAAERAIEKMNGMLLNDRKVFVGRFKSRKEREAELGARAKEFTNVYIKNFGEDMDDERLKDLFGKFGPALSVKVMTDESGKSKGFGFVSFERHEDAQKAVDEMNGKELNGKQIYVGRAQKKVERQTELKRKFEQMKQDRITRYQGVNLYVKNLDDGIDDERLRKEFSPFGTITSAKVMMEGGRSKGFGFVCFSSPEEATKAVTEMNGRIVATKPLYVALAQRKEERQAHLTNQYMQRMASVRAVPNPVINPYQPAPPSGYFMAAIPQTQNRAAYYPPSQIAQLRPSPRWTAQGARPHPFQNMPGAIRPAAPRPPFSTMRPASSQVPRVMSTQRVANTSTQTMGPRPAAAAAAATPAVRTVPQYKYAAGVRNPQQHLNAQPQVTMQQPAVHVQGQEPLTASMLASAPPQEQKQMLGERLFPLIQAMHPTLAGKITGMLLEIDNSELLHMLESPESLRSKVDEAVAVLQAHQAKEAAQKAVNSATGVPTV
T1 sequence (Q9NZJ5 whole entry): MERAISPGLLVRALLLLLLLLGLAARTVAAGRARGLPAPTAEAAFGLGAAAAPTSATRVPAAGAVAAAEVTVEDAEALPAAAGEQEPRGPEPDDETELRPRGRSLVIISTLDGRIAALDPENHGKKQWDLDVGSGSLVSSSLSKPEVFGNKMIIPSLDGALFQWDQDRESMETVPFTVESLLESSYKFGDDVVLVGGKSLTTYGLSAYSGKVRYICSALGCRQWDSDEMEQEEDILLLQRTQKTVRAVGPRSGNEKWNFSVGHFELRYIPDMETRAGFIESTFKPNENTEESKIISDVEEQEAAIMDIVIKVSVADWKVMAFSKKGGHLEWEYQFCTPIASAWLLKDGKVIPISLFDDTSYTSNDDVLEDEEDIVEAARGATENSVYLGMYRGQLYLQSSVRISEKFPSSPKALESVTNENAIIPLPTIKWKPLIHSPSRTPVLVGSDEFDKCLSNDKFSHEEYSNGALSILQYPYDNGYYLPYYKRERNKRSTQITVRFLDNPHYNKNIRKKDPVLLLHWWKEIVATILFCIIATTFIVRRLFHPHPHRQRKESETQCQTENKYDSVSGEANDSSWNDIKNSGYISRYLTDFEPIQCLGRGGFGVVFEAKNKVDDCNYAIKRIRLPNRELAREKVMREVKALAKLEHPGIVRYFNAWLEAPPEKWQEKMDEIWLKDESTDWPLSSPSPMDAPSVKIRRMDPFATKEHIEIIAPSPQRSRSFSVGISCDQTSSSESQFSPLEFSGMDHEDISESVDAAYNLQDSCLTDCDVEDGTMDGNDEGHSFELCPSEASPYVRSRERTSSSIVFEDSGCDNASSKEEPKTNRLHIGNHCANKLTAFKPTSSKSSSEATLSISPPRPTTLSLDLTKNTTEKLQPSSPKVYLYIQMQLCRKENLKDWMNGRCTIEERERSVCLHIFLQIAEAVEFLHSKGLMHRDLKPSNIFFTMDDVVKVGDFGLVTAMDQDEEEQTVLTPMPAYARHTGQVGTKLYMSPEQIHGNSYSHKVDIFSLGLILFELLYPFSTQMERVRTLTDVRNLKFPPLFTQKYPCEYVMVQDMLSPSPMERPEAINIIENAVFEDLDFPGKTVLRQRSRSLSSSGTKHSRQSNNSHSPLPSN
G-protein coupled receptor 35, sequence (Q9HC97 whole entry): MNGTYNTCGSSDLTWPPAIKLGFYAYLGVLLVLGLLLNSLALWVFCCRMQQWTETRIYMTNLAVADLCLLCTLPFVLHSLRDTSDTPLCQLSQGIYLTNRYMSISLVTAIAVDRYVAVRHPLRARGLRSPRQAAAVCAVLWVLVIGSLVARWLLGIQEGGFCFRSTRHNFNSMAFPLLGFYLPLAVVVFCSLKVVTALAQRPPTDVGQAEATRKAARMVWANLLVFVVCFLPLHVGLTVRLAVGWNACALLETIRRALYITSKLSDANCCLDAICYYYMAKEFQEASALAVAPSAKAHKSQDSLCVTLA

Structure (SMILES): O/N=C/c1ccc2cccc(O)c2n1
- EC50 [1]: > 55.7 µM (not active)
- EC50 [2]: > 55.7 µM (not active)

Structure (SMILES): CCOC(=O)C(C)Oc1cccc2c(=O)n(CC(=O)NCc3ccc(F)cc3)ccc12 (centres undefined)
- EC50 [3]: 0.3 µM (active)
- EC50 [4]: > 12 µM (not active)
- EC50 [5]: 1.67 µM (active)
- EC50 [6]: < 0.1 µM (active)
- EC50 [7]: > 12 µM (inconclusive)
- IC50 [8]: > 80 µM (inactive)

Structure (SMILES): Nc1cccc2c1C(=O)N(c1ccccc1)C2=O
- IC50 [9]: 7.86 µM (active)
- IC50 [10]: > 100 µM (not active)
- IC50 [11]: 2.9 µM (active)
- EC50 [12]: 17 µM (active)
- IC50 [13]: 12.4 µM (active)
- EC50 [14]: 10.5 µM (active)
- IC50 [15]: > 66 µM (inactive)
- IC50 [16]: 24 µM (inactive)
- AC50 [17]: > 52 µM (inactive)

Structure (SMILES): CCn1c(/C=N/Nc2ccc(C(=O)O)cc2)nc2ccccc21
- EC50 [18]: 88.3 µM (not active)

Structure (SMILES): COc1ccc(/N=C2\S/C(=C\c3ccc(N4CCOCC4)o3)C(=O)N2CCc2c[nH]c3ccccc23)cc1
- IC50 [19]: 1.49 µM (active)
- EC50 [20]: 0.335 µM (active)
- EC50 [21]: 10 µM (active)
- EC50 [22]: 7.54 µM (active)
- AC50 [23]: 7.09 µM (active)

Structure (SMILES): Cc1cccc(C(=O)ONC(=N)Cc2cccc3ccccc23)c1
- IC50 [24]: 1.62 µM (active)
